In PMC6556873, “Rapid Covalent-Probe Discovery by Electrophile-Fragment Screening” (Journal of the American Chemical Society, 2019):
Read-outs that look alike come from different tables or passages of the source.

Columns and labels:
PCAF = molecular target: T1, PCAF (Homo sapiens, UniProt Q92831); parameters: Intact protein LC/MS covalent labelling, fragments in pools of five, 200 uM each, 4 °C; details: 24 h, 4 °C, pool of five; 200 µM; covalent
T1 construct: gene KAT2B

OTUB2 (OTUB2A) = molecular target: T2, OTUB2 (OTUB2A) (Homo sapiens, UniProt Q96DC9); parameters: Intact protein LC/MS covalent labelling, fragments in pools of five, 200 uM each, 4 °C; details: 24 h, 4 °C, pool of five; 200 µM; covalent
T2 construct: full length residues 1-234, E. coli BL21(DE3)-R3, His tag removed by TEV, construct 27312 Da
T2 sequence (Q96DC9 1-234): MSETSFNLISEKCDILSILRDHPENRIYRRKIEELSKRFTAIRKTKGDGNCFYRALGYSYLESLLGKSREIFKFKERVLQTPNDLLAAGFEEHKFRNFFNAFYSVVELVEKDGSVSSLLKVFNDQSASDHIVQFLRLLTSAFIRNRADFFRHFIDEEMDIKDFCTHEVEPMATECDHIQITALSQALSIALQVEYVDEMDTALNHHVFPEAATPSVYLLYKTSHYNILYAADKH

NUDT7 = molecular target: T3, NUDT7 (Homo sapiens, UniProt P0C024); parameters: Intact protein LC/MS covalent labelling, fragments in pools of five, 200 uM each, 4 °C; details: 24 h, 4 °C, pool of five; 200 µM; covalent
T3 construct: residues 14-235, E. coli, pNIC28-Bsa4, N-terminal His6 tag removed by TEV, construct 26672 Da

BSA = molecular target: T4, BSA (Bos taurus, UniProt P02769); parameters: Intact protein LC/MS covalent labelling, fragments in pools of five, 200 uM each, 4 °C; details: 24 h, 4 °C, pool of five; 200 µM; covalent
T4 construct: gene ALB

NNMT (hNNMT) = molecular target: T5, NNMT (hNNMT) (Homo sapiens, UniProt P40261); parameters: Intact protein LC/MS covalent labelling, fragments in pools of five, 200 uM each, 4 °C; details: 24 h, 4 °C, pool of five; 200 µM; covalent
T5 construct: wild type, N-terminal His6 tag kept (no cleavage described), E. coli, construct 31248 Da
T5 sequence (P40261 1-264): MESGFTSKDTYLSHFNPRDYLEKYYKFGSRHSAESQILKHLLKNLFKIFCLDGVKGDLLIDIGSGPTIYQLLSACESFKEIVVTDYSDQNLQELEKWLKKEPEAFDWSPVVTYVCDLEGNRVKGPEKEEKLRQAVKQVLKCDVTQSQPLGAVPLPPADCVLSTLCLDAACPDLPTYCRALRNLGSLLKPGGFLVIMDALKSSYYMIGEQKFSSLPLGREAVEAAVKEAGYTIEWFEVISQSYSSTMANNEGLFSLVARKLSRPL

in vitro [1] = assay: in vitro; parameters: species or system HB2, HEK293; details: human, ccd841 cells
in vitro [2] = assay: in vitro; parameters: species or system CCD841, HEK293; details: human, hb2 cells, read-out: HB-2 Cells Viability (%)
in vitro [3] = assay: in vitro; parameters: species or system HB2, CCD841; details: human, hek293 cells

T4 sequence (P02769 whole entry, the tested form may be a part): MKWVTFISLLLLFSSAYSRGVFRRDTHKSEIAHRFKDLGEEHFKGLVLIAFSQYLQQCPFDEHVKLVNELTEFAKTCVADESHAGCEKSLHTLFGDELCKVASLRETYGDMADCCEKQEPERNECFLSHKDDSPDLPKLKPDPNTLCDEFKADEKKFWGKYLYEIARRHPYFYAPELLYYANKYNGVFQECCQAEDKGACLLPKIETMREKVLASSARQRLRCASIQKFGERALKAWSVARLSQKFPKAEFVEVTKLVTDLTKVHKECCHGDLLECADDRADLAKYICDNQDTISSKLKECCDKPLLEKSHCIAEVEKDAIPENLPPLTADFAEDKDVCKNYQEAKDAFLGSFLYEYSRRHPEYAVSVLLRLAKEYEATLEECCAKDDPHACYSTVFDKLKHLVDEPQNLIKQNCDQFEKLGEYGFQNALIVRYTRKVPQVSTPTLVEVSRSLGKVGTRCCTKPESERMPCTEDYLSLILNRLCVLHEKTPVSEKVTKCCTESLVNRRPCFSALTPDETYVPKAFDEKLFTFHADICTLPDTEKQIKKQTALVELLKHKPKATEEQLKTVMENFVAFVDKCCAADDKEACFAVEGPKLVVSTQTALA
T1 sequence (Q92831 whole entry, the tested form may be a part): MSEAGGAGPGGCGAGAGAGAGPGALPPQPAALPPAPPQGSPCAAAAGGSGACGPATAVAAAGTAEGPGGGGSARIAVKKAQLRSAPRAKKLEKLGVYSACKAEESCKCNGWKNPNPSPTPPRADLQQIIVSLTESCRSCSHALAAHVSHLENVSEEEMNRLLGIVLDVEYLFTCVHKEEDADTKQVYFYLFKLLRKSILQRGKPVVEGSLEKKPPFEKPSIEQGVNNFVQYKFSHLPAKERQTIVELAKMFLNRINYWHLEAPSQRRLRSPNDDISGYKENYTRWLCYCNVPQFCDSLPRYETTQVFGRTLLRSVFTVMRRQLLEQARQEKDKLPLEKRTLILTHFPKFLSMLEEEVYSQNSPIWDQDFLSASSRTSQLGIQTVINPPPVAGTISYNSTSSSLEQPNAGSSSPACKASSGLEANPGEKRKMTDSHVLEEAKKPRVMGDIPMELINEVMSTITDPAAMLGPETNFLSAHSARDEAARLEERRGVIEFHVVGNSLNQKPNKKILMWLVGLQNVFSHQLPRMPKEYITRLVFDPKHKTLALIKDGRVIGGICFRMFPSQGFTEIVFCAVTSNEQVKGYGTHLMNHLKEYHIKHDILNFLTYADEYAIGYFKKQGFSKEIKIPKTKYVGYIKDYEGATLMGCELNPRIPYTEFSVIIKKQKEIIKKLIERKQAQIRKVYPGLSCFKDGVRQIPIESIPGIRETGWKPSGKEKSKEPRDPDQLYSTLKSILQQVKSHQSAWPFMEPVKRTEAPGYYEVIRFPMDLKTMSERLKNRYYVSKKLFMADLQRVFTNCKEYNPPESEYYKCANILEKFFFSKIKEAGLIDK
T3 sequence (P0C024 14-235): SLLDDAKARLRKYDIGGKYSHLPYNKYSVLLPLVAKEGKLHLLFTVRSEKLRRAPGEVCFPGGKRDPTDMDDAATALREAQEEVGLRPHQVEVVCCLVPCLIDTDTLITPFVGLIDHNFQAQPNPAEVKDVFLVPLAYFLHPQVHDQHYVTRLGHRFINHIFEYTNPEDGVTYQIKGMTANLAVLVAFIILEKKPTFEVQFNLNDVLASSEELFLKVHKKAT

Compound `C=CC(=O)N1CCc2sccc2C1c1cccs1` (stereo not shown) [PCM-0102640] has a PCAF (PCAF) of 0, an OTUB2 (OTUB2 (OTUB2A)) of 0 and an NUDT7 (NUDT7) of 0. For the same compound, the BSA (BSA) was 0, the NNMT (NNMT (hNNMT)) was 0 and the viability at 48 h, 10 µM (in vitro [1]) was 115%. The viability at 48 h, 10 µM (in vitro [2]) was 97.9% and the viability at 48 h, 10 µM (in vitro [3]) was 98.7%.
For `C=CC(=O)N1CCC(CS(C)(=O)=O)CC1` [PCM-0102651], the PCAF (PCAF) was 0, the OTUB2 (OTUB2 (OTUB2A)) was 0 and the NUDT7 (NUDT7) was 0. It also gave a BSA (BSA) of 0, an NNMT (NNMT (hNNMT)) of 0 and a viability at 48 h, 10 µM (in vitro [1]) of 108%. It also gave a viability at 48 h, 10 µM (in vitro [2]) of 105% and a viability at 48 h, 10 µM (in vitro [3]) of 100%.
With `COc1ccc(NC(=O)CCl)cc1Cl` [PCM-0102652] the PCAF (PCAF) was 0, the OTUB2 (OTUB2 (OTUB2A)) was 0.24 and the NUDT7 (NUDT7) was 0.12. It also gave a BSA (BSA) of 0, an NNMT (NNMT (hNNMT)) of 0.83 and a viability at 48 h, 10 µM (in vitro [1]) of 29.3%. For the same compound, the viability at 48 h, 10 µM (in vitro [2]) was 10% and the viability at 48 h, 10 µM (in vitro [3]) was 2.6%.
Work on `Cl.O=C(CCl)Nc1cccnc1` [PCM-0102653] yielded a PCAF (PCAF) of 0, an OTUB2 (OTUB2 (OTUB2A)) of 0 and an NUDT7 (NUDT7) of 0. The BSA (BSA) was 0, the NNMT (NNMT (hNNMT)) was 0 and the viability at 48 h, 10 µM (in vitro [1]) was 85.6%. For the same compound, the viability at 48 h, 10 µM (in vitro [2]) was 84.6% and the viability at 48 h, 10 µM (in vitro [3]) was 93.3%.
In the case of `O=C(CCl)N1CCC(C(=O)N2CCCC2)CC1` [PCM-0102655], the PCAF (PCAF) is reported as 0, the OTUB2 (OTUB2 (OTUB2A)) is reported as 0 and the NUDT7 (NUDT7) is reported as 0. It also gave a BSA (BSA) of 0, an NNMT (NNMT (hNNMT)) of 0.17 and a viability at 48 h, 10 µM (in vitro [1]) of 78.5%. For the same compound, the viability at 48 h, 10 µM (in vitro [2]) was 94% and the viability at 48 h, 10 µM (in vitro [3]) was 87%.
With `O=C(CCl)Nc1ccccc1` [PCM-0102658] the PCAF (PCAF) was 0, the OTUB2 (OTUB2 (OTUB2A)) was 0 and the NUDT7 (NUDT7) was 0. It also gave a BSA (BSA) of 0, an NNMT (NNMT (hNNMT)) of 0 and a viability at 48 h, 10 µM (in vitro [1]) of 67%. It also gave a viability at 48 h, 10 µM (in vitro [2]) of 72% and a viability at 48 h, 10 µM (in vitro [3]) of 56.1%.
With `Cc1ccc(CNC(=O)CCl)cc1` [PCM-0102660] the PCAF (PCAF) was 0, the OTUB2 (OTUB2 (OTUB2A)) was 0.63 and the NUDT7 (NUDT7) was 0. The BSA (BSA) was 0, the NNMT (NNMT (hNNMT)) was 0 and the viability at 48 h, 10 µM (in vitro [1]) was 80.3%. It also gave a viability at 48 h, 10 µM (in vitro [2]) of 87.4% and a viability at 48 h, 10 µM (in vitro [3]) of 93.6%.
In the case of `O=C(CCl)Nc1ccc2c(c1)CCC2` [PCM-0102662], the PCAF (PCAF) is reported as 0, the OTUB2 (OTUB2 (OTUB2A)) is reported as 0.14 and the NUDT7 (NUDT7) is reported as 0.12. The BSA (BSA) was 0, the NNMT (NNMT (hNNMT)) was 0.22 and the viability at 48 h, 10 µM (in vitro [1]) was 56.2%. For the same compound, the viability at 48 h, 10 µM (in vitro [2]) was 16.3% and the viability at 48 h, 10 µM (in vitro [3]) was 4.7%.
In the case of `CC1CCC2(CC1)NC(=O)N(NC(=O)CCl)C2=O` (stereo not shown) [PCM-0102666], the PCAF (PCAF) is reported as 0, the OTUB2 (OTUB2 (OTUB2A)) is reported as 0 and the NUDT7 (NUDT7) is reported as 0. It also gave a BSA (BSA) of 0, an NNMT (NNMT (hNNMT)) of 0 and a viability at 48 h, 10 µM (in vitro [1]) of 79.9%. It also gave a viability at 48 h, 10 µM (in vitro [2]) of 97.3% and a viability at 48 h, 10 µM (in vitro [3]) of 99.9%.
Work on `C=CC(=O)N1CCC2C(CCCN2Cc2ccccc2)C1` (stereo not shown) [PCM-0102673] yielded a PCAF (PCAF) of 0, an OTUB2 (OTUB2 (OTUB2A)) of 0 and an NUDT7 (NUDT7) of 0. The BSA (BSA) was 0, the NNMT (NNMT (hNNMT)) was 0 and the viability at 48 h, 10 µM (in vitro [1]) was 116%. The viability at 48 h, 10 µM (in vitro [2]) was 102% and the viability at 48 h, 10 µM (in vitro [3]) was 85%.
Work on `C=CC(=O)N1CCCCC1c1cnn(C)c1` (stereo not shown) [PCM-0102675] yielded a PCAF (PCAF) of 0, an OTUB2 (OTUB2 (OTUB2A)) of 0 and an NUDT7 (NUDT7) of 0.1. For the same compound, the BSA (BSA) was 0, the NNMT (NNMT (hNNMT)) was 0 and the viability at 48 h, 10 µM (in vitro [1]) was 103%. It also gave a viability at 48 h, 10 µM (in vitro [2]) of 95.7% and a viability at 48 h, 10 µM (in vitro [3]) of 88.5%.
`C=CC(=O)N(C)Cc1c(C)nc2sc(C)cn12` [PCM-0102679] gave a PCAF (PCAF) of 0, an OTUB2 (OTUB2 (OTUB2A)) of 0 and an NUDT7 (NUDT7) of 0.06. For the same compound, the BSA (BSA) was 0, the NNMT (NNMT (hNNMT)) was 0.32 and the viability at 48 h, 10 µM (in vitro [1]) was 108%. It also gave a viability at 48 h, 10 µM (in vitro [2]) of 103% and a viability at 48 h, 10 µM (in vitro [3]) of 83.2%.
`C=CC(=O)N1CCCC1C(=O)Nc1nc2ccccc2s1` (stereo not shown) [PCM-0102681] showed a PCAF (PCAF) of 0, an OTUB2 (OTUB2 (OTUB2A)) of 0 and an NUDT7 (NUDT7) of 0. The BSA (BSA) was 0, the NNMT (NNMT (hNNMT)) was 0 and the viability at 48 h, 10 µM (in vitro [1]) was 115%. For the same compound, the viability at 48 h, 10 µM (in vitro [2]) was 95.7% and the viability at 48 h, 10 µM (in vitro [3]) was 79.7%.
`C=CC(=O)N1CCN(C(=O)CN2C(=O)CCC2=O)CC1` [PCM-0102684] showed a PCAF (PCAF) of 0, an OTUB2 (OTUB2 (OTUB2A)) of 0 and an NUDT7 (NUDT7) of 0.08. It also gave a BSA (BSA) of 0, an NNMT (NNMT (hNNMT)) of 0 and a viability at 48 h, 10 µM (in vitro [1]) of 103%. For the same compound, the viability at 48 h, 10 µM (in vitro [2]) was 99.9% and the viability at 48 h, 10 µM (in vitro [3]) was 105%.
